Experimental data as given in US12251373B2, “Compounds and methods of treating retinal degeneration” (CASE WESTERN RESERVE UNIVERSITY, priority 2017, dated 2025).
Read-outs that look alike come from different tables or passages of the source.

Experiments:
mouse P23H opsin mutant = mouse P23H opsin mutant (Mus musculus, UniProt P15409, P23H); assay: β-Gal fragment complementation assay: rescue of P23H opsin transport from ER to plasma membrane, U2OS(PLC-EA/P23H-PK) cells; type: cell-based; details: for Emax: U2OS; for dependence of activity on light exposure of cells: cells exposed to light vs dark
From the text: U2OS(PLC-EA/P23H-PK) cells. A U2OS stable cell line was generated by DiscoveRx, Inc. (Fremont, CA, USA) for the β-Gal fragment complementation assay used in the small molecule HTS for rescue of P23H opsin transport. U2OS cells that continually express P23H-PK and PLC-EA fusion proteins were generated. Briefly, this small subunit of […] (PK fragment) was fused to the C-terminal of the mouse P23H opsin mutant, while the large EA fragment, a subunit of […], was fused with PLC, a plasma membrane anchored peptide. Both constructs were subcloned by DicoveRx, Inc. and transferred into U2OS cells by viral infections. Positive clones were selected under treatment with hygromycin and geneticin.
Briefly, U2OS(PLC-EA/P23H-PK) cells were suspended in assay medium at 3×10^5 cells mL^−1. The cell suspension was dispensed into 384-well plates (Greiner Bio-one, Monroe, NC, USA) at 20 μL per well, with a Multidrop dispenser (Thermo Scientific, Waltham, MA, USA). Plates with cells then were centrifuged at 200 g for 15 s before incubation at 37° C. with 5% CO2. Plates were removed 24 h later for treatment with tested compounds. A total of 248 plates containing 79,080 compounds from three small molecule libraries were paired with an equal number of assay plates with cultured cells. Due to a limited capacity, these plates were assayed in seven batches. An average of 56.3 nL of 10 mM compound in DMSO was dispensed into each well from column 3 to 22 of paired assay plates using a 50 nL 384-pintool system, such that the final concentration of each compound was 22.52 μM on average. […] Each assay plate was shaken for 5 s before further incubation at 37° C. with 5% CO2. […] Assay plates were incubated in the dark for 60-90 min, and luminescence was read from each assay plate with an Envision microplate reader (PerkinElmer) during a 0.1 s per well integration time. The mean and s.d. of readouts in column 2 of each plate were calculated as Mean0% and SD0%, whereas the average and s.d. of readouts in column 23 were calculated as Mean100% and SD100%. Equation 1: Activity scores (%)=(RLUcp−Mean0%)/(Mean100%−Mean0%)×100%, where RLUcp is the relative luminescence unit derived for cells treated with a compound. Equation 2: Z′-factor=1-3×(SD0%+SD100%)/(Mean100%−Mean0%); Equation 3: signal-to-background (S/B) ratio=Mean100%/Mean0%. Activities of all tested compounds were registered with their compound ID by GeneData Screener (Genedata, Basel, Switzerland) and Pipeline Pilot software (Accelrys, San Diego, CA, USA). Hits, cherry-picked from a separate stock dose-dependent activity test, were selected with an activity score cutoff at 20%. Activity of each hit was tested again with the β-Gal fragment complementation assay in a 10-dose series with each dose tested in triplicate. The 10 doses tested were 80, 40, 20, 10, 5, 2.5, 1.25, 0.625, 0.313, and 0.156 μM. Dose-dependent curves of each hit compound were fitted with GeneData and Origin software.
Detailed synthetic steps are described in FIG. 18. […] YC-002-YC-021 were purchased from commercial vendors including Enamine LLC (Monmouth Jct., NJ, USA), Matrix Scientific (Columbia, SC, USA) and Tokyo Chemical Industry Co., Ltd. (Portland, OR, USA). […] Activities of YC compounds were tested with the β-Gal fragment complementation assay, as described in a prior section. All YC compounds were tested at 10 doses, each in triplicate: 80, 40, 20, 10, 5, 2.5, 1.25, 0.625, 0.313, and 0.156 μM.

P23H opsin = biological target: T1, P23H opsin (Mus musculus, UniProt P15409, P23H); assay: Immunoblot of P23H opsin glycosylation in NIH3T3 cells; type: cell-based; parameters: key to Improved glycosylation: n = no; y = yes; details: for Improved glycosylation: P23H opsin; for glycosylation of P23H opsin (in words): immunoblot, PNGaseF, FIG. 3A-D
T1 construct: expressed in transfected cells
Procedure: NIH3T3-(P23H-opsin/GFP) or NIH3T3-(WT-opsin/GFP) cells were seeded in a 48-well plate (Corning Costar) at 3.2×10^5 cells per well and incubated at 37° C. with 5% CO2 for 2 h. One hundred-μL of assay medium containing a compound at 5× its final concentration was added to each well. The plate was gently shaken for 5 s before further incubation at 37° C. with 5% CO2 for 24 h. The assay medium then was aspirated, and cells were lysed with 100 μL per well PBS containing 0.1% Triton X-100 and complete protease inhibitor cocktail (Roche, Basel, Switzerland) followed by sonication for 3 s. Protein concentrations were determined with the Bradford assay. For PNGase F catalyzed deglycosylation, 3 μL of PNGase F (1,500 U, NEB) was added to the cell lysate and the mixture was incubated at room temperature for 1 h before immunoblotting. For NIH3T3-(P23H-opsin/GFP) cells, 15 μg of total protein were loaded per well onto an SDS-polyacrylamide gel; whereas for NIH3T3-(WT-opsin/GFP) cells, 10 μg of total protein was loaded per well. Opsin protein was immunostained with 0.2 μg mL^−1 horseradish peroxidase-conjugated 1D4 anti-rhodopsin antibody. Band intensities were measured with ImageJ software (http://imagej.nih.gov/ij/; National the Institutes of Health, Bethesda, MD, USA) and normalized to a glyceraldehyde 3-phosphate dehydrogenase (GAPDH) loading control.

[1] = Table 1, scores relative to 9-cis-retinal, read-out: β-Gal fragment complementation assay Activity score (%) EC50
[2] = Table 1, experimental maximum, read-out: β-Gal fragment complementation assay Activity score (%) Max (Exp)
[3] = Table 1, fitted maximum, read-out: β-Gal fragment complementation assay Activity score (%) Max (fit)

Row | Structure (SMILES) | time to maximum activity (mouse P23H opsin mutant; FIG. 1F, 40 μM YC-001) [h] | EC50 (mouse P23H opsin mutant; HTS hit confirmation, FIG. 1E, read-out: potency) [µM] | EC50 (mouse P23H opsin mutant; [1]) [µM] | EC50 (mouse P23H opsin mutant; Table 5, more than one site modified, read-out: Potency) [µM] | Emax (mouse P23H opsin mutant; [2]) [%] | Emax (mouse P23H opsin mutant; [3]) [%] | Emax (mouse P23H opsin mutant; read-out: Efficacy (%)) [%] | effect of co-treatment with scriptaid on P23H opsin transport (mouse P23H opsin mutant; YC-001 and scriptaid co-treatment) | dependence of activity on light exposure of cells (mouse P23H opsin mutant) | effect of co-treatment with 9-cis-retinal (mouse P23H opsin mutant; with 5 μM 9-cis-retinal, FIG. 1G) | Improved glycosylation (P23H opsin) | glycosylation of P23H opsin (in words) (P23H opsin) | activity in rescuing P23H opsin transport (in words) (mouse P23H opsin mutant)
1 | O=C1OCC(c2ccc(Cl)s2)=C1c1cccs1 [YC-001] | ≤ 15 | 7.8 | 8.7 | 8.39 | 310 | 310 | 248 | synergistic effect | not affected | No additive effect | y | improvement of glycosylation | 
2 | O=C(CCCCCN1C(=O)c2cccc3cccc(c23)C1=O)NO [Scriptaid, reference compound] |  |  | 3.09 |  | 98 | 98.2 |  |  |  |  | n | does not affect the glycosylation | strong activity
3 | CC1=C(/C=C/C(C)=C\C=C\C(C)=C\C=O)C(C)(C)CCC1 [9-cis-retinal, reference compound] |  |  | 2.7 |  | 123 | 159 |  |  | required that cells be incubated in the dark |  | y | improvement of glycosylation | 
